Measurements: patent US6620828B2, “Thiazole compounds and pharmaceutical compositions for inhibiting protein kinases and methods for their use” (Agouron Pharmaceuticals, Inc., priority 1999, dated 2003)
Where two headings read alike, the source gives them in different places.

System: human umbilical vein endothelial cells (HUVEC)
Assay: HUVEC proliferation assay
Format: cell-based
Conditions: for inhibition at 0.15 µM / inhibition at 0.05 µM / inhibition at 0.001 µM / inhibition at 0.01 µM: Homo sapiens, HUVEC; for inhibition at 0.15 µM / % inhibition @ 150 nM: Table I screening results, 150 nM; for inhibition at 0.05 µM: 50 nM; for inhibition at 0.001 µM: 1 nM; for inhibition at 0.01 µM: 10 nM
Method in brief: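 Readout was MTT dye reduction (A595) after 72 h of stimulation with VEGF at 6 ng/ml final. Compound, in 0.1% DMSO final, was added 1 h before VEGF to HUVEC starved 24 h in 1% FBS. % inhibition was scaled between VEGF-alone and unstimulated wells; IC50 was fitted from triplicate dose curves.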

[1] = crude combinatorial amide library
[2] = Inhibition of HUVEC Proliferation, crude combinatorial urea library, read-out: Inhibition @ 50 nM
[3] = table following Table II (untitled), crude combinatorial library
[4] = table following Table II (untitled), crude combinatorial library, read-out: % inhibition @ 10 nM
[5] = Table II screening results, crude combinatorial amide library
[6] = Table II screening results, crude combinatorial amide library, read-out: % inhibition @ 10 nM
[7] = Inhibition of HUVEC Proliferation, crude combinatorial urea library, read-out: % inhibition @ 50 nM
[8] = crude combinatorial urea library, read-out: Inhibition of HUVEC Proliferation % inhibition @ 10 nM
[9] = crude combinatorial urea library, read-out: Inhibition of HUVEC Proliferation % inhibition @ 50 nM

Q: How did the inhibition at 0.15 µM [1] turn out when `COc1cc(Nc2nc(N)c(-c3nc(-c4cccc(NC(=O)c5cnc6ccccc6c5)c4)cs3)s2)cc(OC)c1OC` [drawing 896] was run?
A: Its inhibition at 0.15 µM is 42%.

Q: For `COc1cccc(C(=O)Nc2cc(-c3noc(-c4sc(NC(=O)NCc5ccccc5)nc4N)n3)c(F)cc2F)c1`, which inhibition at 0.05 µM [2] is on record?
A: The inhibition at 0.05 µM was 61%.

Q: `COc1cc(Nc2nc(N)c(-c3nc(-c4cccc(NC(=O)COc5ccccc5)c4)cs3)s2)cc(OC)c1OC` [drawing 868] was tested. Which inhibition at 0.15 µM [1] did it give?
A: Its inhibition at 0.15 µM is 10%.

Q: `COc1cc(Nc2nc(N)c(-c3nc(-c4cc(NC(=O)Cc5sc(S)nc5C)ccc4C)no3)s2)cc(OC)c1OC` was tested. Which inhibition at 0.001 µM [3] did it give?
A: The inhibition at 0.001 µM was -17%.

Q: What about the inhibition at 0.01 µM [4] of the same compound?
A: The inhibition at 0.01 µM was 1%.

Q: With `COc1cccc(C(=O)Nc2cc(-c3noc(-c4sc(NC(=O)NCCCN(CCO)CCO)nc4N)n3)c(F)cc2F)c1` as the compound, how does the inhibition at 0.05 µM [2] read?
A: Its inhibition at 0.05 µM is 84%.

Q: With `CNC(=O)Nc1nc(N)c(-c2nc(-c3cccc(NC(=O)C4CC5C=CC4CC5)c3)cs2)s1` (stereo not drawn) as the compound, how does the inhibition at 0.001 µM [5] read?
A: The inhibition at 0.001 µM was 54%.

Q: What about the inhibition at 0.01 µM [6] of the same compound?
A: The inhibition at 0.01 µM was 45%.

Q: With `COc1cccc(C(=O)Nc2cc(-c3noc(-c4sc(NC(=O)NCCc5ccccn5)nc4N)n3)c(F)cc2F)c1` as the compound, how does the inhibition at 0.05 µM [2] read?
A: The inhibition at 0.05 µM was 78%.

Q: `CCC(CO)NC(=O)Nc1nc(N)c(-c2nc(-c3cc(NC(=O)c4cccc(OC)c4)c(F)cc3F)cs2)s1` (stereo not drawn) was tested. Which inhibition at 0.05 µM [7] did it give?
A: Its inhibition at 0.05 µM is 108%.

Q: `COc1cc(Nc2nc(N)c(-c3nc(-c4cccc(NC(=O)/C=C/c5ccccc5F)c4)cs3)s2)cc(OC)c1OC` was tested. Which “% inhibition @ 150 nM” value [1] did it give?
A: Its value is 0%.

Q: Which inhibition at 0.05 µM [7] does the source give for `COc1cccc(C(=O)Nc2cc(-c3csc(-c4sc(NC(=O)NCC5(O)CCCCC5)nc4N)n3)c(F)cc2F)c1` here?
A: The inhibition at 0.05 µM was 72%.

Q: For `COc1cc(Nc2nc(N)c(-c3nc(-c4cccc(NC(=O)c5ccc(N6N=C(C)CC6=O)cc5)c4)cs3)s2)cc(OC)c1OC`, which inhibition at 0.15 µM [1] is on record?
A: Its inhibition at 0.15 µM is 0%.

Q: Which inhibition at 0.001 µM [3] does the source give for `CCn1nc(C)cc1C(=O)Nc1ccc(C)c(-c2noc(-c3sc(Nc4cc(OC)c(OC)c(OC)c4)nc3N)n2)c1` here?
A: The inhibition at 0.001 µM was -4%.

Q: And the inhibition at 0.01 µM [4]?
A: Its inhibition at 0.01 µM is 44%.

Q: Which inhibition at 0.001 µM [5] does the source give for `CNC(=O)Nc1nc(N)c(-c2nc(-c3cccc(NC(=O)C4CCC(=O)CC4)c3)cs2)s1` here?
A: Its inhibition at 0.001 µM is -2%.

Q: And the inhibition at 0.01 µM [6]?
A: The inhibition at 0.01 µM was 12%.

Q: How did the inhibition at 0.05 µM [7] turn out when `COc1cccc(C(=O)Nc2cc(-c3csc(-c4sc(NC(=O)NCS(=O)(=O)O)nc4N)n3)c(F)cc2F)c1` was run?
A: The inhibition at 0.05 µM was 0%.

Q: Which inhibition at 0.05 µM [2] does the source give for `CCCCN(CCCC)CCCNC(=O)Nc1nc(N)c(-c2nc(-c3cc(NC(=O)c4cccc(OC)c4)c(F)cc3F)no2)s1` here?
A: The inhibition at 0.05 µM was 80%.

Q: `COc1cc(Nc2nc(N)c(-c3nc(-c4cc(NC(=O)C5CCCO5)ccc4C)no3)s2)cc(OC)c1OC` (stereo not drawn) was tested. Which inhibition at 0.001 µM [3] did it give?
A: The inhibition at 0.001 µM was 7%.

Q: What about the inhibition at 0.01 µM [4] of the same compound?
A: The inhibition at 0.01 µM was 21%.

Q: With `COc1cc(Nc2nc(N)c(-c3nc(-c4cccc(NC(=O)CCc5nc6ccccc6[nH]5)c4)cs3)s2)cc(OC)c1OC` as the compound, how does the inhibition at 0.15 µM [1] read?
A: The inhibition at 0.15 µM was 27%.

Q: For `COc1cccc(C(=O)Nc2cc(-c3csc(-c4sc(NC(=O)NCCNC(C)=O)nc4N)n3)c(F)cc2F)c1`, which inhibition at 0.05 µM [7] is on record?
A: The inhibition at 0.05 µM was 105%.

Q: With `COc1cccc(C(=O)Nc2cc(-c3csc(-c4sc(NC(=O)NCCN5CCCC5)nc4N)n3)c(F)cc2F)c1` [drawing 703] as the compound, how does the inhibition at 0.05 µM [7] read?
A: Its inhibition at 0.05 µM is 93%.

Q: What does the source list for `COc1cccc(C(=O)Nc2cccc(-c3csc(-c4sc(NC(=O)NC5CCN(Cc6ccccc6)CC5)nc4N)n3)c2)c1`?
A: inhibition at 0.01 µM [8]: -22%; inhibition at 0.05 µM [9]: 23%

Q: How did the inhibition at 0.001 µM [3] turn out when `COc1ccccc1/C=C/C(=O)Nc1ccc(C)c(-c2noc(-c3sc(Nc4cc(OC)c(OC)c(OC)c4)nc3N)n2)c1` was run?
A: The inhibition at 0.001 µM was 13%.

Q: What about the inhibition at 0.01 µM [4] of the same compound?
A: The inhibition at 0.01 µM was 31%.

Q: For `CC/C=C/CC(=O)Nc1cccc(-c2csc(-c3sc(Nc4cc(OC)c(OC)c(OC)c4)nc3N)n2)c1`, which inhibition at 0.15 µM [1] is on record?
A: The inhibition at 0.15 µM was 19%.

Q: Which inhibition at 0.05 µM [7] does the source give for `COc1cccc(C(=O)Nc2cc(-c3csc(-c4sc(NC(=O)NCCc5ccccn5)nc4N)n3)c(F)cc2F)c1` here?
A: Its inhibition at 0.05 µM is 105%.

Q: Which results are given for `CCn1nc(C)cc1C(=O)Nc1cccc(-c2csc(-c3sc(NC(=O)NC)nc3N)n2)c1`?
A: inhibition at 0.001 µM [5]: 17%; inhibition at 0.01 µM [6]: 41%

Q: `C=CCCC(=O)Nc1cccc(-c2csc(-c3sc(Nc4cc(OC)c(OC)c(OC)c4)nc3N)n2)c1` was tested. Which inhibition at 0.15 µM [1] did it give?
A: Its inhibition at 0.15 µM is 5%.

Q: `COc1cc(Nc2nc(N)c(-c3nc(-c4cccc(NC(=O)/C=C/c5cccc(F)c5)c4)cs3)s2)cc(OC)c1OC` was tested. Which “% inhibition @ 150 nM” value [1] did it give?
A: Its value is 0%.

Q: With `CNC(=O)Nc1nc(N)c(-c2nc(-c3cccc(NC(=O)C(=O)C4=CCCCC4)c3)cs2)s1` as the compound, how does the inhibition at 0.001 µM [5] read?
A: The inhibition at 0.001 µM was 17%.

Q: And the inhibition at 0.01 µM [6]?
A: Its inhibition at 0.01 µM is 19%.

Q: Which inhibition at 0.05 µM [7] does the source give for `COc1cccc(C(=O)Nc2cc(-c3csc(-c4sc(NC(=O)NCc5ccncc5)nc4N)n3)c(F)cc2F)c1` here?
A: The inhibition at 0.05 µM was 95%.

Q: `COc1cc(Nc2nc(N)c(-c3nc(-c4cccc(NC(=O)Cc5ccc6c(c5)OCO6)c4)cs3)s2)cc(OC)c1OC` was tested. Which inhibition at 0.15 µM [1] did it give?
A: Its inhibition at 0.15 µM is 46%.

Q: Which results are given for `COc1cccc(C(=O)Nc2cccc(-c3csc(-c4sc(NC(=O)NCCN5CCCCC5)nc4N)n3)c2)c1`?
A: inhibition at 0.01 µM [8]: 22%; inhibition at 0.05 µM [9]: 25%

Q: With `CCC(C(=O)Nc1cccc(-c2csc(-c3sc(NC(=O)NC)nc3N)n2)c1)c1ccccc1C` (stereo not drawn) as the compound, how does the inhibition at 0.001 µM [5] read?
A: Its inhibition at 0.001 µM is -8%.

Q: What about the inhibition at 0.01 µM [6] of the same compound?
A: The inhibition at 0.01 µM was 9%.
